± gives the standard deviation of the averaged measurements.
Experiments:
[1] = compound: COc1cc([C@@H]2c3cc4c(cc3[C@@H](O[C@@H]3O[C@@H]5CO[C@@H](C)O[C@H]5[C@H](O)[C@H]3O)[C@H]3COC(=O)[C@H]23)OCO4)cc(OC)c1O [ETOPOSIDE]; experiment: surviving fraction relative to DMSO-only wells; higher = less growth inhibition; conditions: exposure time: 5 days
Outline: (§1)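 After seeding at 250–500 cells per well in 384-well plates and a 24-hour wait, log-phase tumour cell lines were exposed without interruption for five days to inhibitors at 0.5, 1, 5, 10, 50, 100, 500 and 1000 nM. CellTiter-Glo luminescence was recorded after 10 minutes at room temperature. Viability is reported as surviving fraction, the luminescence normalised to the median of DMSO-only wells.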

[2] = compound: CN(Cc1cnc2nc(N)nc(N)c2n1)c1ccc(C(=O)N[C@@H](CCC(=O)O)C(=O)O)cc1 [METHOTREXATE]; experiment: as above; conditions: exposure time: 5 days
Outline: as §1

Test System | surviving fraction ([1]; 0.5 nM) | surviving fraction ([1]; 1 nM) | surviving fraction ([1]; 5 nM) | surviving fraction ([1]; 10 nM) | surviving fraction ([1]; 50 nM) | surviving fraction ([1]; 100 nM) | surviving fraction ([1]; 500 nM) | surviving fraction ([1]; 1000 nM) | surviving fraction ([2]; 0.5 nM) | surviving fraction ([2]; 1 nM) | surviving fraction ([2]; 5 nM) | surviving fraction ([2]; 10 nM) | surviving fraction ([2]; 50 nM) | surviving fraction ([2]; 100 nM) | surviving fraction ([2]; 500 nM) | surviving fraction ([2]; 1000 nM)
CAL120 BREAST | 0.939 ± 0.036 | 0.933 ± 0.033 | 0.982 ± 0.016 | 0.973 ± 0.013 | 0.938 ± 0.035 | 0.939 ± 0.038 | 0.498 ± 0.1 | 0.356 ± 0.011 | 0.961 ± 0.032 | 0.96 ± 0.086 | 0.721 ± 0.027 | 0.31 ± 0.026 | 0.328 ± 0.0043 | 0.336 ± 0.0094 | 0.333 ± 0.0045 | 0.335 ± 0.012
93VU HEADNECK | 1 ± 0.042 | 1.07 ± 0.033 | 1.11 ± 0.037 | 1.05 ± 0.15 | 1.03 ± 0.12 | 1.14 ± 0.12 | 0.953 ± 0.054 | 0.896 ± 0.021 | 1.03 ± 0.099 | 1.08 ± 0.091 | 1.16 ± 0.11 | 1.18 ± 0.063 | 0.854 ± 0.081 | 1.02 ± 0.051 | 0.702 ± 0.049 | 0.671 ± 0.018
NOS1 BONE | 1.11 ± 0.12 | 1.01 ± 0.099 | 1.33 ± 0.24 | 1.19 ± 0.12 | 0.977 ± 0.08 | 0.91 ± 0.24 | 0.601 ± 0.075 | 0.623 ± 0.074 | 1.07 ± 0.13 | 1.05 ± 0.12 | 1.16 ± 0.08 | 1.15 ± 0.041 | 1.26 ± 0.25 | 1.4 ± 0.33 | 1.19 ± 0.13 | 1.12 ± 0.06
ASKA SYNOVIAL | 1.07 ± 0.14 | 0.949 ± 0.012 | 0.985 ± 0.052 | 0.881 ± 0.036 | 0.68 ± 0.049 | 0.453 ± 0.015 | 0.3413 ± 0.0023 | 0.319 ± 0.0085 | 1.13 ± 0.14 | 1.07 ± 0.067 | 1.13 ± 0.048 | 1.08 ± 0.083 | 1.23 ± 0.094 | 1.18 ± 0.087 | 1.19 ± 0.086 | 1.12 ± 0.09
BT549 BREAST | 0.976 ± 0.13 | 1.15 ± 0.075 | 1.06 ± 0.13 | 1.05 ± 0.12 | 0.939 ± 0.069 | 0.907 ± 0.13 | 0.32 ± 0.027 | 0.198 ± 0.034 | 1.11 ± 0.16 | 1.04 ± 0.034 | 1 ± 0.063 | 1.03 ± 0.11 | 0.107 ± 0.012 | 0.044 ± 0.0053 | 0.0323 ± 0.0055 | 0.039 ± 0.011
HCC38 BREAST | 1.28 ± 0.31 | 1.19 ± 0.15 | 1.16 ± 0.18 | 1.17 ± 0.1 | 1.09 ± 0.054 | 1.21 ± 0.059 | 0.53 ± 0.067 | 0.316 ± 0.026 | 1.39 ± 0.32 | 1.22 ± 0.13 | 1.37 ± 0.2 | 1.43 ± 0.15 | 1.05 ± 0.28 | 0.803 ± 0.038 | 0.385 ± 0.086 | 0.359 ± 0.032
COLO320DM LARGE INTESTINE | 1.16 ± 0.034 | 1.05 ± 0.058 | 1.15 ± 0.044 | 1.05 ± 0.093 | 1.14 ± 0.046 | 1.05 ± 0.049 | 1.04 ± 0.03 | 0.962 ± 0.042 | 1.05 ± 0.045 | 1.04 ± 0.02 | 1.09 ± 0.056 | 0.648 ± 0.066 | 0.315 ± 0.011 | 0.315 ± 0.0081 | 0.307 ± 0.0097 | 0.295 ± 0.027
SYO1 SYNOVIAL | 0.994 ± 0.042 | 0.997 ± 0.059 | 0.975 ± 0.027 | 0.933 ± 0.023 | 0.7 ± 0.044 | 0.505 ± 0.051 | 0.106 ± 0.024 | 0.0784 ± 0.014 | 0.991 ± 0.03 | 0.983 ± 0.047 | 0.984 ± 0.041 | 0.991 ± 0.074 | 0.419 ± 0.024 | 0.285 ± 0.0055 | 0.284 ± 0.02 | 0.281 ± 0.011
SUM149.B1*.S BREAST | 1.1 ± 0.042 | 1.1 ± 0.053 | 1.11 ± 0.017 | 1.12 ± 0.07 | 1.08 ± 0.03 | 1.043 ± 0.0053 | 0.445 ± 0.0065 | 0.343 ± 0.013 | 1.09 ± 0.065 | 1.12 ± 0.042 | 1.06 ± 0.036 | 1.09 ± 0.041 | 0.854 ± 0.035 | 0.767 ± 0.052 | 0.716 ± 0.046 | 0.733 ± 0.0095
SG27 HEADNECK | 1.12 ± 0.081 | 1.05 ± 0.11 | 0.975 ± 0.12 | 1.05 ± 0.14 | 1.08 ± 0.15 | 1.04 ± 0.037 | 1.09 ± 0.14 | 0.985 ± 0.14 | 1.1 ± 0.043 | 1.15 ± 0.15 | 1.09 ± 0.13 | 0.944 ± 0.15 | 1.07 ± 0.034 | 1.25 ± 0.021 | 1.12 ± 0.12 | 1.17 ± 0.07

Source: the supplement of paper PMC6045584
